Data published in patent US20120288482A1, “THERAPEUTIC AGENT (Y-39983) FOR CORNEAL ENDOTHELIAL DYSFUNCTION” (priority 2009, published 2012).

Assays:
[1] = test system: rabbit bullous keratopathy model; experiment: Corneal endothelial cell injection therapy in rabbit bullous keratopathy model (Example 8); format: in vivo; settings: 14 days after cell injection; for expression of Na+/K+ ATPase: compared to control
Text: Male Japanese white rabbits (Biotek Co., Ltd., 8 rabbits) were subjected to the following nictitating membrane excision. Each animal was set in a positioner, and the ocular surface was topically anesthetized by instillation of a topical anesthesia (Benoxil instillation 0.4%, Santen Pharmaceutical Co., Ltd.). Then, the root position of the nictitating membrane was pressed with a clamp for 30 sec, and compressing mark was cut with scissors. After excision of the nictitating membrane, the antibiotic ointment (tarivid eye ointment, Santen Pharmaceutical Co., Ltd.) was instilled to prevent infection.
Three days after nictitating membrane excision, phacoemulsification and aspiration surgery (PEA) was performed on the left eye. Under systemic anesthesia, 3 mm incision was formed in the corneoscleral limbus, crystalline lens was excised by a cataract surgery instrument (NIDEK Co., Ltd.), and the incision was sutured with a nylon thread (Mani Inc.). After phacoemulsification and aspiration surgery (PEA), the antibiotic ointment (tarivid eye ointment, Santen Pharmaceutical Co., Ltd.) was instilled to prevent infection. After 5 days from the PEA, the animals were systemically anesthetized by intramuscular administration of Ketalar muscular injection ([…], DAIICHI SANKYO COMPANY, LIMITED., 0.6 ml) and Celactal 2% Injection (Bayer, Ltd., 0.25 ml). Then, Benoxil instillation 0.4% (Santen Pharmaceutical Co., Ltd., one drop) was instilled and the eye was opened using a lid speculum. Thereafter, 1 mm incision was formed in the corneoscleral limbus, and corneal endothelial cells were scraped with a silicon surgical instrument to mechanically detach the cells. The detachment area was confirmed by trypan blue staining.
The corneal endothelial cells were mechanically scraped, the cultured corneal endothelial cells were collected with 0.05% trypsin-EDTA (Invitrogen, Cat. #25300-054) from the culture flask to give a cell suspension. Using Dulbecco's modified Eagle's medium (DMEM) (Invitrogen, 12320-032), the cultured rabbit corneal endothelial cells were suspended in 3 groups of 10 μM compound (I)/DMEM, 100 μM Y-27632/DMEM and DMEM, each at 1.0×10^6 cells/ml. The cell suspension of each group (200 μl (2.0×10^5 cells per one eye)) was injected with a 22 gauge needle to the anterior chamber from the corneoscleral limbus of the prepared rabbit bullous keratopathy model, and the rabbit was fixed looking downward such that the corneal endothelium face was on the upper side and the corneal epithelial face was on the lower side for 3 hours. The fixing with looking downward was performed with appropriate addition of anesthetics, paying sufficient attention to animal protection.
After 14 days from the cell injection, the treated eye was isolated, and a corneoscleral tissue was excised from the isolated eyeball. The obtained corneoscleral tissue was fixed with 4% para-formaldehyde/PBS for 10 min, and blocked overnight with PBS (Invitrogen, Cat. #14190-144) containing 1% BSA (SIGMA, Cat. #A7906-50G). Thereafter, the corneoscleral tissue was divided into two, and treated with Alexa-488 labeling phalloidin staining actin (Invitrogen, Cat. #Al2379), or anti-Na^+/K^+ ATPase antibody, which is a corneal endothelium marker (UP State, Cat. #05-369), for 2 hours. The anti-Na^+/K^+ ATPase antibody treatment group was further treated with Alexa-488 labeled secondary antibody (Invitrogen, Cat. #A-21202) for 1 hour. Thereafter, the cells were immersed in Vectashield (registered trade mark)-DAPI (Vector Laboratories, Cat. #H-1200) solution, and mounted using cover glass. The specimen was observed under a confocal laser microscope.
Taking the number of nuclei stained with DAPI as the corneal endothelial cell count, the DAPI stained images were analyzed by Image-Pro plus (Media Cybernetics, Inc.), and corneal endothelial cells were counted.

[2] = test system: rabbit corneal endothelial cells; experiment: In vitro wound healing model of rabbit corneal endothelial cells (Example 9); format: cell-based
Procedure: In this Example, test substances and control substance prepared in the same manner as in Example 4 were used. Corneoscleral tissue was collected from 10 rabbit eyeballs purchased from Funakoshi Corporation. The corneoscleral tissue was immersed in DMEM (Invitrogen, Cat. #12320-032) containing 1% penicillin/streptomycin (Invitrogen, Cat. #15140-122), and incubated at 37° C. for 1 hour. The Descemet's membrane was stripped together with intact corneal endothelial cells, immersed in a culture medium (DMEM, 10% FBS, 2 ng/mL bFGF (Invitrogen, Cat. #13256-029), 1% penicillin/streptomycin) containing 2 mg/mL Collagenase A (Roche, Cat. #1088793), and incubated at 37° C. for 2 hours. The cells were collected by centrifugation, washed with the culture medium, and seeded in a T25 flask (Corning Incorporated, Cat. #430639) coated with FNC coating mix (Athena ES, Cat. #0407). The flask were left standing in a 5% CO2 incubator at 37° C., the medium was exchanged every 2-3 days, and the cells were cultured to confluent. The cells that reached confluent were collected, seeded in two 6 well plates (Falcon, Cat. #3046) coated with FNC coating mix, and cultured to confluent. The prepared rabbit corneal endothelial cells were collected, seeded in a 6 well plate at a division ratio of 1:4, and cultured to confluent in the same culture medium as in the above-mentioned (1). Linear wound was created in the confluent cells using 1000 μL chip (6 wounds per well). After creating the linear wounds, the culture medium was exchanged, and 0.95 μM, 1.58 μM and 3.16 μM compound (I), 10 μM Y-27632 and 0.04% DMSO were added. Compound (I) and Y-27632 were dissolved in DMSO in advance, where the DMSO concentration was adjusted to 0.04% for both. The width of the wound at 0, 6, 12 and 24 hours after the addition was photographed over time. The wound width was measured by Image-Pro plus (Media Cybernetics, Inc.). The ratio of wound width at each hour was calculated by taking that at 0 hour after the addition of medicament as 100%, and the time-course changes of the ratio of wound width were evaluated. The ratio of wound width was applied to statistical analysis according to the Dunnett's test at each time point.

SMILES	fibrosis of injected cells (Phalloidin staining) ([1]; 100 μM in cell suspension)	corneal endothelial cell count versus control group ([1]; 100 μM)	expression of Na+/K+ ATPase ([1]; 100 μM)	ratio of wound width versus control ([2]; 10 μM, 24 hours after addition)	fibrosis of injected cells (Phalloidin staining) ([1]; 10 μM in cell suspension)	corneal endothelial cell count versus 100 μM Y-27632 group ([1]; 10 μM)	corneal endothelial cell count versus control group ([1]; 10 μM)	expression of Na+/K+ ATPase ([1]; 10 μM)	concentration showing the highest effect in the in vitro wound healing model [2]	ratio of wound width versus control ([2]; 0.95 μM, 6 hours after addition, Dunnett's test)	wound healing effect ([2]; 1.58 μM)	ratio of wound width versus control ([2]; compound (I), 24 hours after addition, Dunnett's test)	concentration showing a wound healing promoting effect ([2]; in vitro wound healing model, Example 9)
C[C@@H](N)[C@H]1CC[C@H](C(=O)Nc2ccncc2)CC1 [Y-27632, reference compound]	suppression of fibrosis of cells	tended to show higher cell counts than the control group	expression of Na^+/K^+ ATPase was found	showed a difference from the control for the first time									
C[C@@H](N)c1ccc(C(=O)Nc2ccnc3[nH]ccc23)cc1.Cl [compound (I), (R)-(+)-N-(1H-pyrrolo[2,3-b]pyridin-4-yl)-4-(1-aminoethyl)benzamide monohydrochloride]					suppression of fibrosis of cells	higher than that of the 100 μM Y-27632 treatment group	tended to show higher cell counts than the control group	expression of Na^+/K^+ ATPase was found	about 0.95 μM	statistically significant difference from the control	significant effect, the effect was weaker than that of the 0.95 μM compound (I)	statistically significant difference even 24 hours later	0.95 to 1.58 µM
